Measured values taken from patent US8532742B2, “System and method for simultaneous 3DPR device tracking and imaging under MR-guidance for therapeutic endovascular interventions” (Wisconsin Alumni Research Foundation, priority 2006, dated 2013).

Columns and labels:
[1] = Diffusion of a fluorescent probe in swollen gelatin gel by FRAP; format: physicochemical; settings: coating thickness 60 μm, diffusion coefficient 9×10-12 m2s-1
From the text: To assess the stability of DTPA[Gd(III)] in the gelatin coating, the diffusion of a fluorescence probe in gelatin was studied by the technique of fluorescence recovery after photobleaching (FRAP). The instrument and data analysis scheme are described in Kim, S. H. and Yu, H., J. Phys. Chem. 1992, 96, 4034, which is hereby fully incorporated by reference. Fluorescein was used as the fluorescence probe due, in part, to its molecular size being roughly the same as that of DTPA[Gd(III)]. The focus of the study was to examine the possible retardation effects of gelatin concentration and cross-link density on the diffusion, which was determined at room temperature, i.e., below the gel point of gelatin. The diffusion of fluorescein probe slows down with the increase of gelatin concentration. The diffusion coefficient decreases from 1.5×10-10 to 9×10-12 […]-1 when the concentration of gelatin increases from 9% to 40%. […] Accordingly, the probe diffusion is more likely controlled by the concentration of gelatin rather than the cross-link density. On the other hand, the cross-link density may determine the swelling ratio of gelatin, i.e., the concentration of gelatin in aqueous solution. […]

[2] = MR visibility test of gelatin/DTPA[Gd(III)] coating on PE rod in saline and yogurt (Example 14); settings: soaked in water for 12 hours before MRI test
Procedure: Samples having the above formulations were transferred to a glass tube and kept in a water bath at 35° C. A bare PE rod (5 cm in length) was then dipped into the solution, and then removed. The rod was then cooled to room temperature to allow chill-setting of the gelatin solution and to form the coating on the rod surface. The same procedure was repeated to overcoat additional layers of gel. The final dry thickness of gel-coating was about 60 μm.
The gelatin coatings were dried in air while being chemically cross-linked by BVSM. The dried and cross-linked samples were then soaked in distilled water for 12 hours. Soaking each sample in distilled water may remove the DTPA[Gd(III)] that was not physically or chemically constrained by the cross-linked network of gelatin overcoat. Because the DTPA[Gd(III)] complexes were not chemically linked to the gelatin chains, most of them would be expected to diffuse out of the coating when soaked in water, whereas some of DTPA[Gd(III)] may be confined by the crystal domains in gelatin or by hydrogen bonding between gelatin chains and DTPA. In any event, after the soaking, the gelatin coating was dried again in air before MRI test.
The MR visibility of the samples prepared as outlined above, was tested in two media: saline and yogurt. […]

Row | time to diffuse out of the gelatin coating [1] | Structure (SMILES) | retention of complex in gelatin gel after soaking [2]
1 | about 67 seconds | O=C(O)CN(CCN(CC(=O)O)CC(=O)O)CCN(CC(=O)O)CC(=O)O [DTPA, diethylenetriaminepentaacetic acid] | –
2 | – | O=C([O-])CN(CCN(CC(=O)[O-])CC(=O)O)CCN(CC(=O)[O-])CC(=O)O.[Gd+3] [DTPA[Gd(III)], gadolinium-diethylene triamine pentaacetic acid] | some fraction of DTPA[Gd(III)] remained in the gel
